These results are taken from publication PMC7808732 (Biochemical and Biophysical Research Communications, 2021).

The target of the experiment is RNA-binding domain (RBD) of the SARS-CoV-2 nucleocapsid (N) protein, RBD (44–180) (Severe acute respiratory syndrome coronavirus 2, UniProt P0DTC9). In words: biochemical.

SMILES strings stand for the structures.

In general, Kd refers to the free concentration of one partner at which half of the binding sites on the other are occupied at equilibrium, for simple one-to-one binding. Lower therefore signals higher affinity. `Nc1ncnc2c1ncn2[C@@H]1O[C@H](COP(=O)(O)OP(=O)(O)OP(=O)(O)O)[C@@H](O)[C@H]1O` [ATP] showed a Kd of 3.3 ± 0.4 mM.
